Data from patent US20090088482A1, “Compositions and Methods For Treating Heart Failure” (The Trustees Of Columbia University In The City New York, priority 2003, published 2009).

Tested on: ryanodine receptor (RyR)
Assay: Western blot of calcium-handling protein expression: RyR (Example 5)
Type: in vivo, Sprague-Dawley rats
Conditions: FIG. 6; not different from Sham
Description: Five rat hearts from each group (HF, Clen, Meto, Clen+Meto, and Sham) were randomly selected and used for analysis of calcium-handling protein expression levels. Lysates of LV tissue were obtained with the use of a homogenizer (Brinkmann Instruments, Westbury, N.Y.). Approximately 150 mg of heart tissue was placed in a seven-fold volume of lysis buffer (20 mM/L Na-HEPES, 4 mM/L EGTA, 1 mM/L DTT, pH 7.4) in the presence of proteinase inhibitors (0.1 mM/L leupeptin and 0.3 mM/L PMSF). The protein concentration was determined using a protein assay kit (Bio-Rad Laboratories, Hercules, Calif.). Samples (50 μg) were denatured at 95° C. and size-fractionated using SDS-polyacrylamide gel electrophoresis (PAGE) under reducing conditions. SDS-PAGE was performed using 7.5% separating and 5% stacking gels for SERCA2a and 5% separating and 4% stacking gels for RyR. Electrophoresis was performed in a Miniprotean II cell (Bio-Rad Laboratories, Hercules, Calif.) followed by transfer of proteins (using 34 V overnight at 4° C.) onto nitrocellulose in a mini trans-blot transfer cell (Bio-Rad Laboratories, Hercules, Calif.) filled with transfer buffer (25 m/L Tris-HCl, pH 8.3, 192 mM/L glycine and 20% methanol). […]
Optical densities of protein level signals were quantified with the use of a laser scanning densitometer (Molecular Dynamics, Palo Alto, Calif.) in a blinded manner. […]

Compound: CC(C)(C)NCC(O)c1cc(Cl)c(N)c(Cl)c1 (stereo not shown) [Clen, clenbuterol]
- RyR protein expression level relative to tubulin, versus HF group: significantly improved
